Reference: the Kinase Knowledgebase extract (Sharma et al. 2016)
“And” between values parts separate entries of the source, which are not always exact repeats. Equal values may be shown once.

Tests used:
[1] = molecular target: EGFR (human) (UniProt P00533); conditions: A431
[2] = molecular target: EGFR (human) (UniProt P00533); conditions: a431
[3] = molecular target: EGFR (human) (UniProt P00533); conditions: dher14

Chain of EGFR (human) (P00533 whole entry, looked up): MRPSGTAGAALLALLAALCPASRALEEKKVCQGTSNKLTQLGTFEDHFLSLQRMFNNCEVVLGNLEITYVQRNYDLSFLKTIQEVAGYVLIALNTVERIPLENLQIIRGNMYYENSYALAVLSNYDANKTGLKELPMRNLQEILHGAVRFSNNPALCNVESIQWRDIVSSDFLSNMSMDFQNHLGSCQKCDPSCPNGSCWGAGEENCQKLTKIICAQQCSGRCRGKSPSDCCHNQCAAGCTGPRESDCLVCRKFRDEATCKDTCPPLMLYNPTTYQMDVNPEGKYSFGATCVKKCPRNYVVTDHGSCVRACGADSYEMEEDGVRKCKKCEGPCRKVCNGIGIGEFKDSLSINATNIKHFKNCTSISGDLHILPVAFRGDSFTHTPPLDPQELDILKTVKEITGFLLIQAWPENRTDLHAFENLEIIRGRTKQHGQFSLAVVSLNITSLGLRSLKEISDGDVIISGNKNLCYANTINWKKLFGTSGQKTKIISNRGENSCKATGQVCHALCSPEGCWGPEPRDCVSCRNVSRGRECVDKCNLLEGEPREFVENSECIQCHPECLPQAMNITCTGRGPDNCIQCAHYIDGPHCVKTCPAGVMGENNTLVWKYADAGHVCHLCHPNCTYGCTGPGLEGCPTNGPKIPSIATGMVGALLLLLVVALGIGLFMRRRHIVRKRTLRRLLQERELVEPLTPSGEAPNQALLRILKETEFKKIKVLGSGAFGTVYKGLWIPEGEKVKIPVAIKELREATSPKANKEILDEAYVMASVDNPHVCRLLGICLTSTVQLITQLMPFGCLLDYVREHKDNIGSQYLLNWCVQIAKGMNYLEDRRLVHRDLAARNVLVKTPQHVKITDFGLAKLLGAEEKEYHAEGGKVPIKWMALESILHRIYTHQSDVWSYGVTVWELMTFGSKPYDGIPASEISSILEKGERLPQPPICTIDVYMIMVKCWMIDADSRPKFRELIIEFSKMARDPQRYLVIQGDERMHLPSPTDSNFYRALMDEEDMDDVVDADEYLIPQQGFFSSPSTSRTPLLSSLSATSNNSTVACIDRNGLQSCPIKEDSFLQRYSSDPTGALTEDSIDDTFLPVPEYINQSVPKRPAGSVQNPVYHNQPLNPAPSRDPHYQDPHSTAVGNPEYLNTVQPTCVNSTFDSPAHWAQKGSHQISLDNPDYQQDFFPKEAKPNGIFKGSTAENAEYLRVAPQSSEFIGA

SMILES | IC50 [1] | IC50 [2] | IC50 [3]
C=CC(=O)Nc1cc2c(Nc3cccc(Br)c3)ncnc2cc1N1CCN(C)CC1 | 500 to 13000 nM | 50 to 250 nM | 
COc1cc2ncnc(Nc3cc(Cl)c(Cl)cc3F)c2cc1OC |  | 3 to 5 nM | 
COCC(=O)Nc1ccc2ncnc(Nc3cccc(I)c3)c2c1 |  | 1000 to 5000 nM | 
C=CC(=O)Nc1ccc2ncnc(Nc3cc(Cl)c(Cl)cc3F)c2c1 |  | 6.7 to 20 nM | 
O=C(CCl)Nc1ccc2ncnc(Nc3cc(Cl)c(Cl)cc3F)c2c1 |  | 5 to 25 nM and 25 to 50 nM | 
COCC(=O)Nc1ccc2ncnc(Nc3cc(Cl)c(Cl)cc3F)c2c1 |  | 1000 to 10000 nM | > 250 nM
